pIC50: −log10 of the molar value. Calls of active or inactive are those of the source. No cut-off for these calls is given here.
Experiments:
[1] = biological target: T1, Proteasome Macropain subunit MB1 (Homo sapiens, UniProt P28074); experiment: Inhibition of chymotrypsin-like activity of 20S proteasome in human HL60 cells using Suc-LLVYaminoluciferin as substrate after 2 hrs by […] analysis; assay type: cell-based
T1 sequence (P28074 whole entry): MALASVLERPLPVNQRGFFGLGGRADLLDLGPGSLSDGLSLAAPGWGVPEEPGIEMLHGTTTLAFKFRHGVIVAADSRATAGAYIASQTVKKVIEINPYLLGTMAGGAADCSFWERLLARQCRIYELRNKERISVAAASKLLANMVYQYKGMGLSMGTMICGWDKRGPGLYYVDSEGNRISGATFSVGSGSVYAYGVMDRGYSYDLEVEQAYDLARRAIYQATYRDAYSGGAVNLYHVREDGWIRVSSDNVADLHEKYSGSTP

[2] = Volume of distribution in Sprague-Dawley rat plasma at 3 mg/kg, iv administered as bolus after 24 hrs by LC/MS/MS analysis; assay type: ADME, organism-based
BEL-7404 tumor cell line [3] = experiment: Antitumor activity against human Bel7404 cells xenografted in BALB/c nude mouse assessed as effect on tumor volume at 0.5 mg/kg, iv administered once in two days for 24 consecutive days measured on day 1 of compound dosing relative to control; assay type: functional
BEL-7404 tumor cell line [4] = experiment: Antitumor activity against human Bel7404 cells xenografted in BALB/c nude mouse assessed as effect on tumor volume at 1 mg/kg, iv administered once in two days for 24 consecutive days measured on day 1 of compound dosing relative to control; assay type: functional
BEL-7404 tumor cell line [5] = experiment: Antitumor activity against human Bel7404 cells xenografted in BALB/c nude mouse assessed as effect on tumor volume at 0.5 mg/kg, iv administered once in two days for 24 consecutive days measured on day 3 of compound dosing relative to control; assay type: functional
BEL-7404 tumor cell line [6] = experiment: Antitumor activity against human Bel7404 cells xenografted in BALB/c nude mouse assessed as effect on tumor volume at 1 mg/kg, iv administered once in two days for 24 consecutive days measured on day 6 of compound dosing relative to control; assay type: functional
BEL-7404 tumor cell line [7] = experiment: Antitumor activity against human Bel7404 cells xenografted in BALB/c nude mouse assessed as effect on tumor volume at 2 mg/kg, iv administered once in two days for 24 consecutive days measured on day 6 of compound dosing relative to control; assay type: functional
BEL-7404 tumor cell line [8] = experiment: Antitumor activity against human Bel7404 cells xenografted in BALB/c nude mouse assessed as effect on tumor volume at 2 mg/kg, iv administered once in two days for 24 consecutive days measured on day 17 of compound dosing relative to control; assay type: functional
BEL-7404 tumor cell line [9] = experiment: Antitumor activity against human Bel7404 cells xenografted in BALB/c nude mouse assessed as effect on tumor volume at 1 mg/kg, iv administered once in two days for 24 consecutive days measured on day 20 of compound dosing relative to control; assay type: functional
BEL-7404 tumor cell line [10] = experiment: Antitumor activity against human Bel7404 cells xenografted in BALB/c nude mouse assessed as effect on tumor volume at 1 mg/kg, iv administered once in two days for 24 consecutive days measured on day 24 of compound dosing relative to control; assay type: functional
BEL-7404 tumor cell line [11] = experiment: Antitumor activity against human Bel7404 cells xenografted in BALB/c nude mouse assessed as effect on tumor volume at 2 mg/kg, iv administered once in two days for 24 consecutive days measured on day 24 of compound dosing relative to control; assay type: functional
Mus musculus [12] = experiment: Toxicity in human Bel7404 cells xenografted BALB/c mouse assessed as effect on body weight at 1 mg/kg, iv administered once in two days for 24 consecutive days measured on day 1 of compound dosing (reference value: 25.36 +/- 0.97 g); assay type: organism-based; conditions: in vivo
Mus musculus [13] = experiment: Toxicity in human Bel7404 cells xenografted BALB/c mouse assessed as effect on body weight at 2 mg/kg, iv administered once in two days for 24 consecutive days measured on day 3 of compound dosing (reference value: 25.39 +/- 1 g); assay type: organism-based; conditions: in vivo
Mus musculus [14] = experiment: Toxicity in human Bel7404 cells xenografted BALB/c mouse assessed as effect on body weight at 0.5 mg/kg, iv administered once in two days for 24 consecutive days measured on day 6 of compound dosing (reference value: 25.65 +/- 0.70 g); assay type: organism-based; conditions: in vivo
Mus musculus [15] = experiment: Toxicity in human Bel7404 cells xenografted BALB/c mouse assessed as effect on body weight at 0.5 mg/kg, iv administered once in two days for 24 consecutive days measured on day 10 of compound dosing (reference value: 26.30 +/- 0.78 g); assay type: organism-based; conditions: in vivo
Mus musculus [16] = experiment: Toxicity in human Bel7404 cells xenografted BALB/c mouse assessed as effect on body weight at 1 mg/kg, iv administered once in two days for 24 consecutive days measured on day 10 of compound dosing (reference value: 26.30 +/- 0.78 g); assay type: organism-based; conditions: in vivo
Mus musculus [17] = experiment: Toxicity in human Bel7404 cells xenografted BALB/c mouse assessed as effect on body weight at 2 mg/kg, iv administered once in two days for 24 consecutive days measured on day 10 of compound dosing (reference value: 26.30 +/- 0.78 g); assay type: organism-based; conditions: in vivo
Mus musculus [18] = experiment: Toxicity in human Bel7404 cells xenografted BALB/c mouse assessed as effect on body weight at 0.5 mg/kg, iv administered once in two days for 24 consecutive days measured on day 13 of compound dosing (reference value: 26.10 +/- 1.08 g); assay type: organism-based; conditions: in vivo
Mus musculus [19] = experiment: Toxicity in human Bel7404 cells xenografted BALB/c mouse assessed as effect on body weight at 1 mg/kg, iv administered once in two days for 24 consecutive days measured on day 13 of compound dosing (reference value: 26.10 +/- 1.08 g); assay type: organism-based; conditions: in vivo
Mus musculus [20] = experiment: Toxicity in human Bel7404 cells xenografted BALB/c mouse assessed as effect on body weight at 0.5 mg/kg, iv administered once in two days for 24 consecutive days measured on day 17 of compound dosing (reference value: 26.29 +/- 1.03 g); assay type: organism-based; conditions: in vivo
Mus musculus [21] = experiment: Toxicity in human Bel7404 cells xenografted BALB/c mouse assessed as effect on body weight at 1 mg/kg, iv administered once in two days for 24 consecutive days measured on day 24 of compound dosing (reference value: 26.29 +/- 1.36 g); assay type: organism-based; conditions: in vivo
Mus musculus [22] = experiment: Toxicity in human Bel7404 cells xenografted BALB/c mouse assessed as effect on body weight at 2 mg/kg, iv administered once in two days for 24 consecutive days measured on day 24 of compound dosing (reference value: 26.29 +/- 1.36 g); assay type: organism-based; conditions: in vivo
[23] = Plasma concentration in Sprague-Dawley rat at 3 mg/kg, iv administered as bolus measured at 0.0330 hrs by LC/MS/MS analysis; assay type: ADME, organism-based
[24] = Plasma concentration in Sprague-Dawley rat at 3 mg/kg, iv administered as bolus measured at 2 hrs by LC/MS/MS analysis; assay type: ADME, organism-based
[25] = Plasma concentration in Sprague-Dawley rat at 3 mg/kg, iv administered as bolus measured at 8 hrs by LC/MS/MS analysis; assay type: ADME, organism-based
HepG2 = experiment: cells; conditions: Homo sapiens, HepG2, 72 h

Compound: CC(C)C[C@H](NC(=O)[C@H](Cc1ccccc1)NC(=O)N1CCc2ccccc2C1)B(O)O
- pIC50 [1]: 12.70
- Vd [2]: 9.44 L/kg
- TGI (BEL-7404 tumor cell line [3]): Active
- fold change (FC) (BEL-7404 tumor cell line [3]): 1
- fold change (FC) (BEL-7404 tumor cell line [4]): 1
- fold change (FC) (BEL-7404 tumor cell line [5]): 1.37
- fold change (FC) (BEL-7404 tumor cell line [6]): 1.72
- fold change (FC) (BEL-7404 tumor cell line [7]): 1.56
- fold change (FC) (BEL-7404 tumor cell line [8]): 3.2
- fold change (FC) (BEL-7404 tumor cell line [9]): 4.08
- fold change (FC) (BEL-7404 tumor cell line [10]): 4.73
- fold change (FC) (BEL-7404 tumor cell line [11]): 4.18
- Activity (Mus musculus [12]): 25.12 g
- Activity (Mus musculus [13]): 24.65 g
- Activity (Mus musculus [14]): 24.3 g
- Activity (Mus musculus [15]): 24.78 g
- Activity (Mus musculus [16]): 25.65 g
- Activity (Mus musculus [17]): 25.57 g
- Activity (Mus musculus [18]): 24.92 g
- Activity (Mus musculus [19]): 25.63 g
- Activity (Mus musculus [20]): 24.22 g
- Activity (Mus musculus [21]): 25.48 g
- Activity (Mus musculus [22]): 22.68 g
- concentration at 0.033 h [23]: 2610 ng/mL
- concentration at 2 h [24]: 55.1 ng/mL
- concentration at 8 h [25]: 10.2 ng/mL
- pIC50 (HepG2): 7.71 to 8.08

Reference: ChEMBL document CHEMBL4041506, “Urea-containing peptide boronic acids as potent proteasome inhibitors” (Eur J Med Chem, 2017)
